Results taken from US20230365602A1, “COMPOUND FOR USE IN THE TREATMENT OF PROTOZOAL DISEASES AND PROCESS FOR PRODUCTION OF SAID COMPOUND” (QUADREL S.R.L., priority 2020, published 2023).
In brackets after ≈: the same amount, converted by molar mass. Entries after “also recorded” stand apart in the source; their conditions may differ. Like-named read-outs stand apart in the source and are kept apart here.

Legend:
[1] = Toxicity MTT assay in PMA-differentiated THP-1 cells; format: cell-based, human; settings: human, PMA-differentiated THP-1 cells (macrophages); for CC50: THP-1 macrophages, Table 1, read-out: Toxicity CC50 ± SD or NOAEL; for IC50: Table 4b, read-out: Cytotoxicity THP-1 (IC50)
Description: (§1) The in vitro antiparasitic activity against L. infantum (MHOM/MA/67/ITMAP-263) and the toxicity against THP-1 macrophages is presented in Table 1.

[2] = test system: PMA-differentiated THP-1 cells; test: as above; format: cell-based, human; settings: for Toxicity MTT assay in PMA-differentiated THP-1 cells: Table 5
Description: as §1

[3] = test system: L. major SASKH intracellular amastigotes; test: Anti-leishmanial activity, L. major intracellular amastigotes; format: cell-based; settings: Leishmania major; read-out: L. major SASKH intracellular amastigotes IC50 ± SEM
Description: The in vitro antiparasitic activity of compound 5-cyclopentadecylpentyl (2-(trimethylammonio)ethyl) phosphate (19) against L. infantum (2 species), L. amazonensis, L. donovani and L. major is presented in Table 3, as well as the toxicity against the human monocytic cell Line THP1 and PMA-differentiated THP-1 cells.

CYP1A2 = molecular target: T1, CYP1A2 (Homo sapiens, UniProt P05177); test: Early toxicity: CYP1A2 inhibition; format: in vitro ADME; settings: human, mean ± SD, Table 4a
T1 sequence (P05177 1-516): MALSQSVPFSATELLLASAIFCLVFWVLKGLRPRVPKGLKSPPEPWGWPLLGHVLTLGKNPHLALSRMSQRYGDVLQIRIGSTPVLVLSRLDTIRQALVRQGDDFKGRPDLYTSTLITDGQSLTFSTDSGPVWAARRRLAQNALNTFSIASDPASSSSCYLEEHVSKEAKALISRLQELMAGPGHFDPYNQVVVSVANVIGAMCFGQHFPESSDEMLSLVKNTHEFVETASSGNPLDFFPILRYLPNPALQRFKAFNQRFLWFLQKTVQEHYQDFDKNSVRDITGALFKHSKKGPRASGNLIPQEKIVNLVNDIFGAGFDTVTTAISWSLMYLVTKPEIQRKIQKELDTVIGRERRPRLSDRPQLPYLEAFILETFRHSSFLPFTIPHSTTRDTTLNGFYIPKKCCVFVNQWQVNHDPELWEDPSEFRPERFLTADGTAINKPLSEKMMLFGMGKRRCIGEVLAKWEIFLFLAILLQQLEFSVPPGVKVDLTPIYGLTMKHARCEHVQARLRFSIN

CYP2C9 = CYP2C9 (Homo sapiens, UniProt P11712); test: Early toxicity: CYP2C9 inhibition; format: in vitro ADME
Chain of CYP2C9 (P11712 whole entry): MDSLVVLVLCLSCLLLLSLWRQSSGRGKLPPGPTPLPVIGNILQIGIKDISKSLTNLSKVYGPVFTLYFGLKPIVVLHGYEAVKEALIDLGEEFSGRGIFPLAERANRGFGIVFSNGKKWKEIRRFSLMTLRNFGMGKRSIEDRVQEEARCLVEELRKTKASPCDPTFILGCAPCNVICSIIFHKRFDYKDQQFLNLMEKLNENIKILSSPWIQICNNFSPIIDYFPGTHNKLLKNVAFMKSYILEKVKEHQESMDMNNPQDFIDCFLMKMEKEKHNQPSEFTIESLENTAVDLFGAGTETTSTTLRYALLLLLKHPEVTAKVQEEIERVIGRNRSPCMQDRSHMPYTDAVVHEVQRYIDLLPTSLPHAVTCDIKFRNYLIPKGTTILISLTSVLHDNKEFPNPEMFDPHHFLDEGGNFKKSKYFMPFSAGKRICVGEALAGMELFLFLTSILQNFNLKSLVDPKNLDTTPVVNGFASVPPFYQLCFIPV

CYP2C19 = CYP2C19 (Homo sapiens, UniProt P33261); test: Early toxicity: CYP2C19 inhibition; format: in vitro ADME; settings: human, mean ± SD, Table 4a
Chain of CYP2C19 (P33261 whole entry): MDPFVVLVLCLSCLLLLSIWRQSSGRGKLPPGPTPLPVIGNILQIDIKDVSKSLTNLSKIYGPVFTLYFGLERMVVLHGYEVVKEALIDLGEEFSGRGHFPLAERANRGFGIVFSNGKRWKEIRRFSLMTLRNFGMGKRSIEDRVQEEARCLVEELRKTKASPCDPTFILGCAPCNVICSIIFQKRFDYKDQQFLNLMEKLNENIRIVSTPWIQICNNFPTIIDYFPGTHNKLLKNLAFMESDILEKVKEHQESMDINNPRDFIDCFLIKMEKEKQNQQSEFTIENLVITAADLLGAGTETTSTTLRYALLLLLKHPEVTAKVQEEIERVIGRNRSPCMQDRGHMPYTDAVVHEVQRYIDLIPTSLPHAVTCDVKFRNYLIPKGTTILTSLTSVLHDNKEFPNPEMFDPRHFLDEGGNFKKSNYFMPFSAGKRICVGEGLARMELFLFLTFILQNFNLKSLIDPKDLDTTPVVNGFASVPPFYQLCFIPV

CYP2D6 = CYP2D6 (Homo sapiens, UniProt P10635); test: Early toxicity: CYP2D6 inhibition; format: in vitro ADME; settings: human, mean ± SD, Table 4a
Chain of CYP2D6 (P10635 whole entry): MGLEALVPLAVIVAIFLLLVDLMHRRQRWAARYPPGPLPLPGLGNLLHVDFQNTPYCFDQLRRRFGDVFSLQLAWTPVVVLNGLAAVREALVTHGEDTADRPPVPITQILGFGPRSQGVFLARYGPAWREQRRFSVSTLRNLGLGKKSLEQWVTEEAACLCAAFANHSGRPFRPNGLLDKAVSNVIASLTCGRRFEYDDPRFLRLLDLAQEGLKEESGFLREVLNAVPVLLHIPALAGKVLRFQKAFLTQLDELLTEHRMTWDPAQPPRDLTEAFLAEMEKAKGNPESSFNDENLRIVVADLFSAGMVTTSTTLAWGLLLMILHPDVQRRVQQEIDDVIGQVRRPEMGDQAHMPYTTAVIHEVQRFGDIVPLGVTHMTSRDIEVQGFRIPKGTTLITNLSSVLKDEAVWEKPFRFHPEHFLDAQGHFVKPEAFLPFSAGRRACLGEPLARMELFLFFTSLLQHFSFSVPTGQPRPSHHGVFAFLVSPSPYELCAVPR

CYP3A4 = CYP3A4 (Homo sapiens, UniProt P08684); test: Early toxicity: CYP3A4 inhibition; format: in vitro ADME; settings: human, 10 μM
Chain of CYP3A4 (P08684 whole entry): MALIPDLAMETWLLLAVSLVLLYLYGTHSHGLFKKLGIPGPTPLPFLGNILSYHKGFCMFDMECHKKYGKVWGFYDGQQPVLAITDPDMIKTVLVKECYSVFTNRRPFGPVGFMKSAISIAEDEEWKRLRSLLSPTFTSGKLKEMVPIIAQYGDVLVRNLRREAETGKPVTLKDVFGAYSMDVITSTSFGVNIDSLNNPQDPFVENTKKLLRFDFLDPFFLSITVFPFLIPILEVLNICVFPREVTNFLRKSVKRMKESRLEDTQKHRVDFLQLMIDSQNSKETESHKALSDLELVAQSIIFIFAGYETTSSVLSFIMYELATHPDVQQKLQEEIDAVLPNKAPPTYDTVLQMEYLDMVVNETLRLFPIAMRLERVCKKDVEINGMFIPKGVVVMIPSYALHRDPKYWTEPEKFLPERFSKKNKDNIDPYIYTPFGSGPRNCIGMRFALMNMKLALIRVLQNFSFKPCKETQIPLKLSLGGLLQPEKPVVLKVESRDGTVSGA

A549 = test: Early toxicity: A549 cell growth; format: cell-based; settings: for Avg % Cell growth A549: Table 5
W1-38 = test: Early toxicity: W1-38 cell growth; format: cell-based; settings: for Avg % Cell growth W1-38: Table 5
mitochondria = test: Early toxicity: mitochondrial toxicity; format: cell-based; settings: for Ang % Toxicity Mitochondria: Table 5
Human Erythrocytes = test: In vitro Hemolytic Activity in Human Erythrocytes; format: cell-based; settings: for Hemolysis at 100 μM (%) / Hemolysis, HC50: human erythrocytes
Description: The assay, which is an indicator of the toxic insult of a compound on the erythrocyte membrane is performed essentially as described in (Calogeropoulou T. et al., J. Med. Chem. 2008, 51, 897-908). […] [table]

[4] = Apparent solubility by nephelometry; format: physicochemical; settings: kinetic from dmso stock
[5] = Maximum tolerated dose and dose range finding, 7 days oral gavage; settings: for average weight loss at the end of the experiment: 7 days; for MTD at 7 days: BALB/c, mouse, in vivo, oral
Description: The primary objective of the dose range finding study is to establish the maximum tolerated dose (MTD) as determined by parameters such as clinical signs and reductions in body weight and food consumption, and to provide the data for appropriate dose selection in subsequent regulatory toxicology studies.

[6] = test system: T. brucei brucei Lister 427 expressing red-shifted luciferase; test: Efficacy in HAT mice model (acute T. b. brucei infection), live imaging; format: in vivo, BALB/c mice; settings: for infection outcome (words): 50 mg/kg/day PO, 7 consecutive days
Description: (B) Overall evolution of parasite burden assessed by live imaging using IVIS Lumina LT (Perkin Elmer) during and after treatment. T. b. brucei Lister 427 expressing red-shifted luciferase was used in these experiments. DX is the day post treatment. (C) Quantification of bioluminescent signal plotted as average radiance (p/s/cm^2/sr) during and after treatment.
In addition, 5-cyclopentadecylpentyl (2-(trimethylammonio) ethyl) phosphate (19) was effective per os in vivo against T. brucei acute model of infection and also against the long lasting chronic infection model. […] The daily treatment with 50 mg/kg for 13 days lead to a significant decrease of infection and increase in animal survival. […] Altogether 5-cyclopentadecylpentyl (2-(trimethylammonio) ethyl) phosphate (19) is effective in the BALB/c infection model for T. brucei being a possible therapeutical option both for HAT stage I and II.
T. brucei brucei Lister 427 expressing red-shifted luciferase was used in these experiments as described for L. infantum in vivo infection in (Graça N A et al., Antimicrob Agents Chemother. 2016 Mar. 25; 60(4):2532-6). The overall evolution of parasite burden assessed by live imaging using IVIS Lumina LT (Perkin Elmer) during and after treatment. […] To confirm this possibility, the treated mice immune system was suppressed with cyclophosphamide. […] The advantage over pentamidine is the oral administration of compound 19 versus ip administration of pentamidine.

[7] = Gel formation in saline solutions of NaCl; format: physicochemical; settings: same conditions
Description: This effect is more pronounced at concentrations between 7 and 40 mg/mL at a temperature range between 20° C. and 40° C., preferably at ambient temperature. The homogeneity of the product facilitates homogeneity of dosing, i.e, variability among doses is lower, easy administration of the compound and higher patient acceptability.

[8] = Table 5, read-out: Avg % inhibition CYP3A4
[9] = mean ± SD, Table 4a, read-out: % inhibition CYP3A4

| Compound | CC50 [1] | IC50 [1] | Toxicity MTT assay in PMA-differentiated THP-1 cells [2] | IC50 [3] | inhibition at 10 µM (CYP1A2) | inhibition at 10 µM (CYP2C19) | inhibition at 10 µM (CYP2D6) | inhibition at 10 µM (CYP3A4; [8]) | inhibition at 10 µM (CYP3A4; [9]) | Avg % Cell growth A549 (A549; 10 μM) | Avg % Cell growth W1-38 (W1-38; 10 μM) | Ang % Toxicity Mitochondria (mitochondria; 10 μM) | Hemolysis at 100 μM (%) (Human Erythrocytes; 100 μM) | Hemolysis, HC50 (Human Erythrocytes) | average weight loss at the end of the experiment ([5]; 50 mg/kg daily oral gavage) | day from which weight loss was significant ([5]; 100 mg/kg daily oral gavage) | average weight loss at the end of the experiment ([5]; 100 mg/kg daily oral gavage) | MTD at 7 days [5] | infection outcome (words) [6] | gel formation [7] | also measured |
| --- | --- | --- | --- | --- | --- | --- | --- | --- | --- | --- | --- | --- | --- | --- | --- | --- | --- | --- | --- | --- | --- |
| C[N+](C)(C)CCOP(=O)([O-])OCCCCCC1CCCCCCCCCCCCCC1 [Compound 19, 5-cyclopentadecylpentyl (2-(trimethylammonio)ethyl) phosphate] | > 100 µM | > 100 µM | >100 µM | 15.5 ± 1.5 µM | -32.1 ± 9.3% | -18.2 ± 7.01% | -50.7 ± 3.45% | -17.6 ± 8.89% | 17.6 ± 8.89% | 108.28 ± 0.09 (10 μM) % | 95.66 ± 19.68 (10 μM) % | −3.22 ± 5.44 (10 μM) % | 8.7% | >100 µM | 7±8% | 5 days | 11±4% | 100 mg/kg | eliminated the infection; also recorded: full clearance of infection | homogeneous gel product | CC50 ([2]; MTT assay in PMA-differentiated THP-1 cells, Table 3, read-out: Toxicity CC50 ± SD): > 100 µM; CC50 ([2]; Table 2, read-out: Toxicity CC50 ± SD or NOAEL): > 100 µM; inhibition at 10 µM (CYP2C9; human, mean ± SD, Table 4a): -17.5 ± 2.31%; % cell growth A549 (A549; 10 μM, 100% = not cytotoxic, 0% = cytostatic, −100% = cytotoxic): 108.28 ± 0.09%; % cell growth W1-38 (W1-38; 10 μM): 95.66 ± 19.68%; % mitochondrial toxicity (mitochondria; 10 μM, 100% mitotoxic, 0% not mitotoxic): −3.22 ± 5.44%; percentage of hemolytic activity lower than miltefosine (Human Erythrocytes; 100 μM): approximately 11 fold; solubility ([4]; FaSSIF, pH 6.5, fassif, read-out: Solubility in FaSSIF (pH = 6.5)): > 100 µM; solubility ([4]; FeSSIF, pH 5, fessif, read-out: Solubility in FeSSIF (pH = 5)): > 100 µM; solubility ([4]; PBS, pH 7.4, aqueous buffer, read-out: Solubility in PBS (pH = 7.4)): < 10 µM; solubility ([4]; simulated gastric fluid (SGF), simulated gastric fluid, SGF, pH 1.6, read-out: Solubility in SGF (pH = 1.6)): 12.5 µM; solubility ([4]; water, H2O, read-out: Solubility in H2O): < 10 µM; relapse after treatment ([6]; 3 weeks after treatment, also after cyclophosphamide immune suppression): no relapse was detected |
| CCCCCCCCCCCCCCCCOP(=O)([O-])OCC[N+](C)(C)C [Miltefosine, hexadecylphosphocholine, reference compound] | 15.9 ± 1.2 µM | 15.9 ± 1.2 µM | 15.9 ± 1.2 µM | 43.7 ± 8.34 µM | -20.6 ± 11.8% | 7.92 ± 15.5% | 30.8 ± 16.7% | 8.39 ± 8.99% | 8.39 ± 8.99% | 95.80 ± 15.78 (10 μM) % | 113.50 ± 26.66 (10 μM) % | 3.99 ± 8.95 (10 μM) % | 96.1% | 38.3 ± 2.8 µM | 11±3% | 4 days | 19±6% | 50 mg/kg | no in vivo activity | not observed | Avg % inhibition CYP2C9 (CYP2C9; 10 μM, Table 5): −0.80 ± 38.33 (10 μM) %; % inhibition CYP2C9 (CYP2C9; 10 μM, mean ± SD, Table 4a): −0.8 ± 38.32%; % cell growth A549 (A549; at 1 μM): 95.8 ± 15.78%; % cell growth W1-38 (W1-38; at 1 μM): 113.5 ± 26.66%; % mitochondrial toxicity (mitochondria; at 1 μM): 3.39 ± 8.95%; solubility ([4]; pH 1.6, simulated gastric fluid): 12.5 µM (≈ 5.09 µg/mL); solubility ([4]; pH 5, fessif): > 100 µM; solubility ([4]; pH 6.5, fassif): > 100 µM; solubility ([4]; pH 7.4, aqueous buffer): 25 µM (≈ 10.2 µg/mL); solubility ([4]; water): 25 µM (≈ 10.2 µg/mL); food intake compared to the equivalent treatment of compound 19 ([5]; 100 mg/kg): significant lesser food intake; infection outcome (words) ([6]; listed as miltefosine): did not work at all |
